Source: US5480899A, “Oxazolidine derivatives and pharmaceutically acceptable salts thereof” (Taiho Pharmaceutical Co., Ltd., priority 1992, dated 1996)

What was measured:
[1] = tested on: fatty acid biosynthesis system (rat liver slices); assay: Effects on fatty acid biosynthesis in rat liver slices ([1-14C] acetic acid incorporation); assay type: cell-based, male Wistar rat; conditions: 37° C., 2 hours, radioactivity of fatty acid fraction vs control
Protocol: (§1) Effects on sterol and fatty acid biosynthesis systems obtained from a rat liver slices
(§2) Pharmacological tests were carried out according to the procedure mentioned below, referring to the following document: Endo, A., Tsujita, Y., Kuroda, M. and Tanzawa, K., Eur. J. Biochem., 77, 31-36 (1977).
(§3) The liver was extirpated from a male Wistar rat (body weight: about 200 g) immediately after sacrifice by decapitation, and sufficiently perfused with ice-cold Krebs-Ringer bicarbonate buffer solution. The liver slices (100 mg) were added to 1 ml of Krebs-Ringer bicarbonate buffer solution containing [1-^14 C] acetic acid (2 μci/μmol) and one of test compounds adjusted to various concentrations, and the reaction was carried out at 37° C. for 2 hours in 95% O2 -5% CO2 gas mixture. After cooling the reaction mixture, 2 ml of petroleum ether was added thereto to extract the sterol fraction with shaking. The extract was concentrated and 1 ml of 1% digitonin solution was added thereto. After standing, the mixture was centrifuged. The sterol fraction obtained as the sediment was washed several times with an organic solvent and dissolved in 1 ml of acetic acid. Subsequently, radioactivity of the sterol fraction was measured. Then the concentration of the test compound (IC50) was determined at which the radioactivity was inhibited by 50% compared with the radioactivity observed in the control group wherein the test compounds were not used.
In a similar manner, the radioactivity of fatty acid fraction was determined which was obtained by treating, with hydrochloric acid, the lower layer of the petroleum ether mentioned in the above procedure.

[2] = tested on: sterol biosynthesis system (rat liver slices); assay: Effects on sterol biosynthesis in rat liver slices ([1-14C] acetic acid incorporation); assay type: cell-based, male Wistar rat; conditions: 37° C., 2 hours, radioactivity of sterol fraction vs control
Protocol: as §1, §2, §3

[3] = tested on: serum lipid (triglyceride and cholesterol); assay: Rate of decrease in serum lipid (triglyceride and cholesterol) in rats after 14-day oral administration; assay type: in vivo, male Sprague-Dawley rats; conditions: 300 mg/kg orally everyday for 14 days; 24 hours after last administration; vs control group (0.5% HPMC)
Protocol: Male Sprague-Dawley rats (body weight: about 130 g) were preliminarily bred for one week, and divided into groups, each group consisting of five rats. Each of the test compounds was suspended in a 0.5% hydroxy-propylmethylcellulose (HPMC) aqueous solution, and the suspensions were orally administered to the rats at a dose of 300 mg/kg at 9:00 a.m. everyday for 14 days. […] The blood was allowed to stand and centrifuged to obtain serum. Lipid (triglyceride and cholesterol) in the obtained serum was measured by the enzymic method using an autoanalyzer.
Pharmacological activities of the test compounds were determined as the rate of decrease (%) in serum lipid compared with the control group to which only 0.5% aqueous HPMC solution was administered.

Compound	IC50 [1]	IC50 [2]	Rate of decrease in total cholesterol in serum [3]	Rate of decrease in triglyceride in serum [3]
O=Cc1ccc(OCC2CN(c3ccc(Br)cc3F)C(=O)O2)cc1 (stereo not drawn) [Compound 8]	2.9 µM	6.4 µM	–	–
Cc1ccc(N2CC(COc3ccc(CO)cc3)OC2=O)cc1 (stereo not drawn) [Compound 175, 4-[3-(4-tolyl)-2-oxooxazolidin-5-yl]methoxybenzyl alcohol]	2.7 µM	4.8 µM	–	–
O=C(O)c1ccc(OCC2CN(c3ccc(OC(F)(F)F)cc3)C(=O)O2)cc1 (stereo not drawn) [Compound 108]	–	–	50.4%	83.0%
O=C(O)c1ccc(OCC2CN(c3ccc(C(F)(F)F)cc3)C(=O)O2)cc1 (stereo not drawn) [Compound 101]	3.17 µM	4.8 µM	–	–
COc1ccc(N2CC(COc3ccc(C=O)cc3)OC2=O)cc1 (stereo not drawn) [Compound 1, 4-[3-(4-methoxyphenyl)-2-oxooxazolidin-5-yl]methoxybenzaldehyde]	5.6 µM	10.2 µM	–	–
Cc1ccc(CN2CC(COc3ccc(C(=O)O)cc3)OC2=O)cc1 (stereo not drawn) [Compound 130]	14.8 µM	29.5 µM	–	–
O=C(O)c1ccc(OCC2CN(c3ccc(Cl)cc3Cl)C(=O)O2)cc1 (stereo not drawn) [Compound 98]	–	–	26.8%	65.5%
O=C(O)CCc1ccc(OCC2CN(c3ccc(Cl)cc3)C(=O)O2)cc1 (stereo not drawn) [Compound 193]	3.8 µM	16.4 µM	–	–
O=C(O)c1ccc(OCC2CN(c3ccccc3)C(=S)O2)cc1 (stereo not drawn) [Compound 171, 4-(3-phenyl-2-oxazolidinethion-5-yl)methoxybenzoic acid]	9.81 µM	34.5 µM	–	–
O=C(O)c1ccc(OCC2CN(c3ccc(Br)cc3F)C(=O)O2)cc1 (stereo not drawn) [Compound 100]	–	–	32.4%	62.9%
O=C(O)c1ccc(OCC2COC(=O)N2c2ccccc2)cc1 (stereo not drawn) [Compound 180, 4-(3-phenyl-2-oxooxazolidin-4-yl)methoxybenzoic acid]	33.7 µM	7.1 µM	–	–
O=C(O)/C=C/c1ccc(OCC2CN(c3ccc(Cl)cc3)C(=O)O2)cc1 (stereo not drawn) [Compound 183]	5.7 µM	17.4 µM	–	–
O=C1OC(COc2ccc(CCCO)cc2)CN1c1ccccc1 (stereo not drawn) [Compound 195, 3-[4-(3-phenyl-2-oxooxazolidin-5-yl)methoxyphenyl]propyl alcohol]	7.3 µM	23.2 µM	–	–
O=C1OC(COc2ccc(CCCO)cc2)CN1c1ccc(Cl)cc1 (stereo not drawn) [Compound 194, 3-{4-[3-(4-chlorophenyl)-2-oxooxazolidin-5-yl]methoxyphenyl}propyl alcohol]	4 µM	4.8 µM	–	–

Further lines, with some results ahead:

IC50 [1]	IC50 [2]	Compound	Rate of decrease in total cholesterol in serum [3]	Rate of decrease in triglyceride in serum [3]
1.99 µM	3.36 µM	O=C(O)c1ccc(OC[C@H]2CN(c3ccc(Cl)cc3)C(=O)O2)cc1 [Compound 149]	–	–
1.55 µM	3.23 µM	O=C(O)c1ccc(OCC2CN(c3ccc(Br)cc3)C(=O)O2)cc1 (stereo not drawn) [Compound 93]	–	–
2.89 µM	5.74 µM	Cc1ccc(N2CC(COc3ccc(C(=O)O)cc3)OC2=O)cc1 (stereo not drawn) [Compound 83]	–	–
1.23 µM	0.84 µM	COc1ccc(N2C[C@@H](COc3ccc(C(=O)O)cc3)OC2=O)cc1 [Compound 164]	–	–
4.78 µM	8.08 µM	O=C(O)c1ccc(OC[C@H]2CN(c3ccc(C(F)(F)F)cc3)C(=O)O2)cc1 [Compound 147]	–	–
1.3 µM	3.79 µM	O=C(O)c1ccc(OCC2CN(c3ccc([N+](=O)[O-])cc3)C(=O)O2)cc1 (stereo not drawn) [Compound 81, 4-[3-(4-nitrophenyl)-2-oxooxazolidin-5-yl]methoxybenzoic acid]	–	–
1.09 µM	1.15 µM	O=C(O)c1ccc(OC[C@@H]2CN(c3ccc(Cl)cc3)C(=O)O2)cc1 [Compound 165]	–	–
